A word on the inhibition: it is the relative decrease from the control value, in per cent. In general, pIC50 refers to the negative decadic logarithm of the IC50, by convention in mol/L. A word on the CC50: it is the concentration that lowers cell viability or growth by half. As usually defined, the pEC50 is the negative decadic logarithm of the EC50, by convention in mol/L.

SMILES strings stand for the structures. pEC50, pIC50: −log10 of the molar value.

The results in this text go back to ChEMBL document CHEMBL5126664, “Anti-Epstein-Barr Viral Agents from the Medicinal Herb-Derived Fungus Alternaria alstroemeriae Km2286” (J Nat Prod, 2022).

In series [1] the test system is Human gammaherpesvirus 4. Description: Antiviral activity against EBV infected in P3HR1 cells assessed as decrease in Rta cells at 10 uM measured after 24 hrs by Western blot analysis relative to control. In kind it is functional. The following applies: human gammaherpesvirus 4, P3HR-1. Background: Immunoblotting shows a protein as a band on a membrane.
The subject of series [2] is BV-2. Description: Antiinflammatory activity in mouse BV2 cells assessed as reduction in LPS-induced nitric oxide production at 10 uM by colorimetric assay relative to control. In kind it is functional.
Series [3] concerns BV-2. Description: Antiinflammatory activity in mouse BV2 cells assessed as reduction in LPS-induced nitric oxide production by colorimetric assay. The series is classed as functional, cell-based.
Series [4] in a line: Cytotoxicity against human P3HR1 cells. The series is classed as toxicity, cell-based, P3HR-1.
The nature of series [5]: Selectivity index, ratio of CC50 for human P3HR1 cells to EC50 for EBV. In kind it is toxicity. Conditions: read-out: Ratio CC50/EC50.
Series [6] deals with Human gammaherpesvirus 4. Description: Antiviral activity against EBV infected in P3HR1 cells assessed as decrease in viral replication. In kind it is functional, organism-based. Conditions: human gammaherpesvirus 4, P3HR-1.

Consider `CC[C@H](C)[C@H]1NC(=O)C(C(C)=O)=C1O`, for which the inhibition at 10 µM in series [1] was -5%; in series [2] it was 41.1%.
Regarding `CO[C@H]1c2c3c4c(c(O)ccc4c4ccc(O)c(c24)[C@@H](O)[C@H]1O)C(=O)C=C3`, the pIC50 in series [3] is 5.56. Also, the cytotoxic concentration (CC50) in series [4] amounted to 60200 nM. In addition, the inhibition at 10 µM was determined as 100% in series [1] and 105% in series [2]. Moreover, the selectivity ratio in series [5] amounted to 49.7. The pEC50 in series [6] was 5.92.
As for `O=C1C=Cc2c3c4c(c(O)ccc4c4ccc(O)c1c24)[C@@H](O)[C@@H](Cl)[C@H]3O`, the pIC50 in series [3] is 6.14. Further, the midpoint of cytotoxicity in series [4], the CC50, lay at 39400 nM. Also, the inhibition at 10 µM in series [1] was found to be 100%; in series [2], 94.9%. In series [5], the selectivity ratio was 26.1. The pEC50 in series [6] was 5.82.
Turning to `O=C1C[C@H](SCC(O)C(=O)O)[C@@]2(O)c3c(ccc(O)c31)-c1ccc(O)c3c1[C@@H]2[C@@H](Cl)[C@H](O)[C@@H]3O` (stereo partly drawn), the pIC50 in series [3] was 6.48. Moreover, it took 2300 nM to reach half-maximal cytotoxicity in series [4] (CC50). For the same compound, the inhibition at 10 µM was 100% in series [1] and 102% in series [2]. Besides, the selectivity ratio in series [5] was found to be 13.5. The pEC50 in series [6] was 6.77.
For the compound `O=C1C=Cc2c3c4c(c(O)ccc4c4ccc(O)c1c24)[C@@H](O)[C@H](Cl)[C@@H]3O`, the pIC50 in series [3] was 5.69. Further, in series [4], the CC50 was more than 100000 nM. The results for the inhibition at 10 µM in series [1] and in series [2] were 100% and 76.2%, respectively. The selectivity ratio in series [5] was more than 32. For the same compound, the pEC50 in series [6] is 5.50.
`O=C1C=Cc2c3c4c(c(O)ccc4c4ccc(O)c1c24)[C@@H](O)[C@H](O)[C@@H]3O`: half-maximal cytotoxicity in series [4] (CC50) was put at 86100 nM. The results for the inhibition at 10 µM in series [1] and in series [2] were 100% and 20.2%, respectively. In addition, the selectivity ratio in series [5] is 64.3. Further, in series [6], the pEC50 was 5.87.
In the case of `O=C1C[C@H](O)[C@H]2c3ccc(O)c4c3[C@H](c3ccc(O)c1c32)[C@@H](O)[C@@H](Cl)[C@@H]4O`, in series [3], the pIC50 was 5.39. Moreover, in series [4], it took 61200 nM to reach half-maximal cytotoxicity (CC50). The inhibition at 10 µM in series [1] amounted to 100%; in series [2] it was 92.1%. Besides, in series [5], the selectivity ratio was 25.3. In addition, the pEC50 in series [6] is 5.62.
With `COc1cc(/C=C/C(=O)CC(=O)/C=C/c2ccc(O)c(OC)c2)ccc1O` [CURCUMIN], the pIC50 in series [3] is 5.57.
As for `O=C1C[C@@H](O)[C@@H]2c3ccc(O)c4c3[C@@H](c3ccc(O)c1c32)[C@H](O)CC4=O` [STEMPHYPERYLENOL], the pIC50 in series [3] is 5.49. Also, the inhibition at 10 µM amounted to 34% in series [1] and 77.4% in series [2].
Take `CC[C@H](C)[C@@H]1NC(=O)C(C(C)=O)=C1O` [TENUAZONIC ACID]: the inhibition at 10 µM was found to be 23% in series [1] and 62.9% in series [2].
